Entries after “also recorded” stand apart in the source; their conditions may differ.
Assays:
[1] = tested on: serum phosphate, urinary fractional excretion of phosphate; assay: Example 3 trial: serum and urinary phosphate; assay type: in vivo, human; settings: for mean urinary FEPi over time compared with baseline: by day 7 through day 35; for course of serum phosphate after day 1: through day 35
Protocol: Study visits were on Days 0 (when iron was infused), 1 (24 hours after iron infusion), 7, 14, and 35. The primary objectives were to determine the effect of iron deficiency on cFGF23 and iFGF23 levels and the effect of intravenous iron on iFGF23 and cFGF23 levels.
Randomization occurred centrally via a fax-based system. […] The complete dose was infused over 15 minutes on day 0. […] An initial test dose of 25 mg was administered slowly over 5 minutes.
Laboratory testing of blood and three-hour urine collections was performed at the screening visit and on study days 0 (when iron was infused), 1 (24 hours after iron infusion), 7, 14, and 35 (see e.g., FIG. 2A). Any subject who experienced a reduction in serum phosphate below the normal range after day 0 underwent additional phosphate measurements at 14 day intervals following day 35 until the level returned to the normal reference range. Safety evaluations of all subjects included ascertainment of adverse events, physical examinations at all study visits, and laboratory assessments. Any subject who withdrew from the study received a follow-up phone call to ascertain adverse events 30 days after they received study drug.
The pre-specified primary endpoints were changes in blood and urine markers of phosphate and bone metabolism among the evaluable population, defined as those subjects with baseline and at least one post-randomization set of FGF23 and blood and urinary phosphate levels. Secondary endpoints included the proportion of subjects achieving a hemoglobin increase […] anytime between baseline and day 35, and the change from baseline to highest hemoglobin, ferritin, and TSAT anytime during the 35-day study period. Additional safety endpoints included incidence, severity, and seriousness of adverse events, and incidence of treatment-emergent abnormal clinical laboratory values in the safety population, defined as all subjects who received the study drug regardless of subsequent laboratory testing.
Blood and urine samples were sent to a central laboratory for analysis (Covance Central Laboratory Service, Indianapolis, Ind.). Hemoglobin, blood counts, iron indices, electrolytes, and serum and urinary phosphate and creatinine were measured with standard, automated, multi-analyte techniques. Urinary fractional excretion of phosphate (FEPi) was calculated from the three-hour, morning urine collections as urinary phosphate x serum creatinine/serum phosphate x urinary creatinine. Serum levels of 25-hydroxyvitamin D and 1,25-dihydroxyvitamin D were measured in duplicate by radioimmunoassay (DiaSorin, Stillwater, Minn.) with intra-assay coefficients of variation (CV)<11.6%. Plasma C-terminal FGF23 (cFGF23) was measured in duplicate in EDTA-plasma samples using a human FGF23 immunometric assay capable of detecting both the intact peptide and its C-terminal fragments (Immutopics, San Clemente, Ca) with intra-assay CV≦3.8%. Because cFGF23 testing was performed in parallel with rolling enrollment and follow-up, all cFGF23 assay plates tested combinations of baseline and post-intervention samples from multiple study participants. Serum intact FGF23 (iFGF23) was measured in batches of baseline and post-intervention samples from multiple study participants at study end using an immunometric assay that detects the intact peptide exclusively (Kyowa Medex Company, Shizuoka, Japan) with intra-assay CV<2.7%. Serum hepcidin levels were measured on days 0, 7, and 35 using an enzyme-linked immunosorbent assay (Intrinsic LifeSciences, La Jolla, Calif.) with intra-assay CV≦19%. Urinary amino acids, glucose, albumin, and beta 2 microglobulin were measured to test for the possibility of global proximal tubular dysfunction. Urinary deoxypyridinoline cross link, and serum osteocalcin and bone-specific alkaline phosphatase were measured to assess bone turnover.
Baseline characteristics are presented as mean±standard error for continuous variables and as proportions for categorical variables. […]

[2] = tested on: FGF-23 C-Terminal; assay: VIT-23 study: plasma FGF-23 C-terminal assay; assay type: in vivo, human
Protocol: Subjects with a hemoglobin (Hgb) that meets inclusion requirements and no exclusionary criteria will be offered participation in this 5-6 week study.
During the Treatment Phase, all subjects received a maximum dose of 1000 mg of IV iron. […] If no reaction occurred, the remainder of the dose (up to 15 mg/kg or 1000 mg including the test dose) was given as per Investigator. The infusion was given only when resuscitative techniques for the treatment of anaphylactic and anaphylactoid reactions were readily available.
Primary Endpoints included changes in blood and urine markers of phosphate and bone metabolism following IV iron administration. Blood markers include (all performed in morning after 10 hr fast): Serum Phosphate; Serum Potassium; Plasma Fibroblast growth factor 23 via 2nd generation Immutopics C-terminal assay; Serum Vitamin D; 1, 25 dihydroxy Vitamin D (1,25 [OH]2D); 25 hydroxy Vitamin D (250H-D); Serum Osteocalcin; Serum Bone-specific Alkaline phosphatase; Plasma intact Parathyroid hormone; Serum creatinine; Hepcidin; Reticulocyte count; Hemoglobin; Ferritin; Transferrin Saturation (TSAT); and Sample for archive. Urine markers (collected over a 3 hour period in the morning) (ratio of phosphate to creatinine determined to offset inter-patient variability in urine concentration) include: Phosphate; Creatinine; Calcium; Amino acids; Glucose; Albumin; Deoxypyridinoline cross link (Dpd)—a collagen type I cross link that indicates bone resorption; Beta-2-microglobulin; and Sample for archive.
All subjects had laboratory assessments at Screening, Day 0, Day 1 (24 hrs), Day 7, Day 14, and Day 35. Any subject with a change in phosphate value after Day 0 had additional phosphate measurements at 14 day intervals (following Day 35) until the level returned to normal (as defined by the laboratory reference range). Safety evaluation for all subjects included adverse events, physical examination, including vital signs, and laboratory assessments. Three hour urine collections was also performed on Day 0, Day 1 (24 hrs), Day 7, Day 14, and Day 35. Any subject who withdrew from the study will receive a follow up phone call 30 days after they received study drug.
The “baseline” was the value at Day 0 prior to administration of any study drug. The value of “n” for the baseline measurement may have be different at each study visit because the baseline values were assessed only for those individuals with data at the given visit.

| Substance | mean urinary FEPi over time compared with baseline [1] | mean urinary fractional excretion of phosphate (FEPi) on day 1 ([1]; in vivo) | serum phosphate within 24 hours after iron administration ([1]; in vivo) | course of serum phosphate after day 1 [1] | FGF-23 C-Terminal, EDTApl-RUO, Visit, Mean ([2]; Day 1) [RU/mL] | FGF-23 C-Terminal, EDTApl-RUO, Change to Visit, Mean ([2]; Day 1 vs baseline) [RU/mL] | FGF-23 C-Terminal, EDTApl-RUO, Visit, Mean ([2]; Day 7) [RU/mL] | FGF-23 C-Terminal, EDTApl-RUO, Change to Visit, Mean ([2]; Day 7 vs baseline) [RU/mL] | FGF-23 C-Terminal, EDTApl-RUO, Visit, Mean ([2]; Day 14) [RU/mL] | FGF-23 C-Terminal, EDTApl-RUO, Change to Visit, Mean ([2]; Day 14 vs baseline) [RU/mL] | FGF-23 C-Terminal, EDTApl-RUO, Visit, Mean ([2]; Day 35) [RU/mL] | FGF-23 C-Terminal, EDTApl-RUO, Change to Visit, Mean ([2]; Day 35 vs baseline) [RU/mL] | FGF-23 C-Terminal, EDTApl-RUO, Visit, Mean ([2]; Minimum post-baseline value) [RU/mL] | FGF-23 C-Terminal, EDTApl-RUO, Change to Visit, Mean ([2]; Minimum value vs baseline) [RU/mL] | day of nadir in serum phosphate ([1]; FCM subjects stratified by serum phosphate<2.0 mg/dL) [days] | decrease in serum phosphate by day 7 ([1]; evaluable population) [mg/dL] | decrease in serum phosphate by day 14 ([1]; evaluable population) [mg/dL] | subjects in whom serum phosphate decreased to <2.0 mg/dL ([1]; in vivo) [subjects] | FEPi in FCM low phosphate subgroup vs the remaining ([1]; stratified analysis, peaked by day 14) |
| --- | --- | --- | --- | --- | --- | --- | --- | --- | --- | --- | --- | --- | --- | --- | --- | --- | --- | --- | --- |
| iron dextran [reference compound] | no significant change over time | trended downwards | increased modestly | returned to near baseline levels by day 7 and remained stable for the remainder of the study | 151.60 | −716.03 | 114.13 | −682.42 | 107.39 | −733.96 | 360.71 | −683.57 | 94.00 | −732.67 | – | – | – | – | – |
| polynuclear iron (III)-hydroxide 4(R)-(poly-(1→4)-O-α-glucopyranosyl)-oxy-2(R),3(S),5(R),6-tetrahydroxy-hexanoate [FCM] | increased significantly compared with baseline | trended downwards | increased modestly | returning towards normal by day 35; also recorded: transient and asymptomatic reductions | 176.80 | −648.30 | 165.23 | −699.73 | 170.12 | −584.59 | 141.56 | −692.29 | 98.73 | −684.57 | 14 | 0.6 | 0.7 | 10 | increased to a significantly greater extent in the low phosphate subgroup |

— patent publication US20140162974A1, “METHODS FOR MODULATION OF PHOSPHORUS AND FGF23” (Luitpold Pharmaceuticals, Inc., priority 2012, published 2014)
